From the supplement of paper PMC11451515

Key:
Settings in all cases: 48 h
NOMO1 [1] = assay: AUC of viability dose-response curve (% viability x log10 dose units); higher = less sensitive
How it was run: (§1)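 Over 48 h at 37°C, leukemia cells in 1536-well plates (500 or 1000 cells/well), adapted to each medium, received library compounds in DMSO at 11 threefold doses from 47 μM to 0.79 nM. CellTiter-Glo One luminescence, normalised per plate to DMSO and cell-free wells, was fitted by a four-parameter log-logistic function of log10 dose. The area under the curve was then integrated by trapezoidal rule, after scaling curves above full viability and removing those that failed quality control.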

SEM cells [2] = assay: as above
How it was run: as §1

P12-Ichikawa [3] = assay: as above
How it was run: as §1

NOMO1 [4] = assay: cell viability relative to DMSO control; higher = less cytotoxic
How it was run: (§2)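 Library compounds in DMSO were pin-dosed into 1536-well plates (5 μl) holding NOMO1 or SEM (500 cells/well) or P12-Ichikawa (1000 cells/well) leukemia cells, across an 11-point threefold series of 47 μM to 0.79 nM. Each cell line had been adapted for at least four passages in each medium. CellTiter-Glo One luminescence was read after 48 h at 37°C. Viability is the per-plate percentage relative to DMSO wells, with cell-free wells as background.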

SEM cells [5] = assay: as above
How it was run: as §2

P12-Ichikawa [6] = assay: as above
How it was run: as §2

O=C(O)/C=C/c1ccc(O)c(O)c1
AUC of viability dose-response curve
Settings | NOMO1 [1] | P12-Ichikawa [3] | SEM cells [2]
HPLM + 10% dialyzed FBS | 454 | 449 | 447
RPMI 5 mM glucose + 10% FBS | 453 | 447 | 423
RPMI 5 mM glucose + 10% dialyzed FBS | 462 | 443 | 428

cell viability [%]
Settings | NOMO1 [4] | P12-Ichikawa [6] | SEM cells [5]
HPLM + 10% dialyzed FBS, 0.000781 µM | 104 | 118 | 90.4
HPLM + 10% dialyzed FBS, 0.00234 µM | 125 | 113 | 102
HPLM + 10% dialyzed FBS, 0.00702 µM | 104 | 105 | 93.6
HPLM + 10% dialyzed FBS, 0.0211 µM | 107 | 112 | 122
HPLM + 10% dialyzed FBS, 0.0632 µM | 127 | 110 | 106
HPLM + 10% dialyzed FBS, 0.19 µM | 124 | 103 | 93.6
HPLM + 10% dialyzed FBS, 0.569 µM | 118 | 107 | 98.5
HPLM + 10% dialyzed FBS, 1.71 µM | 118 | 99.2 | 105
HPLM + 10% dialyzed FBS, 5.12 µM | 104 | 105 | 112
HPLM + 10% dialyzed FBS, 15.4 µM | 94.7 | 88.3 | 78
HPLM + 10% dialyzed FBS, 46.1 µM | 67 | 18.3 | 20.2
RPMI 5 mM glucose + 10% FBS, 0.000781 µM | 124 | 106 | 108
RPMI 5 mM glucose + 10% FBS, 0.00234 µM | 100 | 111 | 96.8
RPMI 5 mM glucose + 10% FBS, 0.00702 µM | 109 | 111 | 90.3
RPMI 5 mM glucose + 10% FBS, 0.0211 µM | 107 | 112 | 114
RPMI 5 mM glucose + 10% FBS, 0.0632 µM | 97.9 | 108 | 110
RPMI 5 mM glucose + 10% FBS, 0.19 µM | 98.9 | 106 | 90.6
RPMI 5 mM glucose + 10% FBS, 0.569 µM | 92.5 | 113 | 109
RPMI 5 mM glucose + 10% FBS, 1.71 µM | 111 | 117 | 106
RPMI 5 mM glucose + 10% FBS, 5.12 µM | 101 | 105 | 98.5
RPMI 5 mM glucose + 10% FBS, 15.4 µM | 92.2 | 93.4 | 39.1
RPMI 5 mM glucose + 10% FBS, 46.1 µM | 25.2 | 6.72 | 5.15
RPMI 5 mM glucose + 10% dialyzed FBS, 0.000781 µM | 105 | 100 | 99.2
RPMI 5 mM glucose + 10% dialyzed FBS, 0.00234 µM | 118 | 120 | 117
RPMI 5 mM glucose + 10% dialyzed FBS, 0.00702 µM | 106 | 105 | 111
RPMI 5 mM glucose + 10% dialyzed FBS, 0.0211 µM | 102 | 116 | 112
RPMI 5 mM glucose + 10% dialyzed FBS, 0.0632 µM | 106 | 117 | 103
RPMI 5 mM glucose + 10% dialyzed FBS, 0.19 µM | 115 | 110 | 114
RPMI 5 mM glucose + 10% dialyzed FBS, 0.569 µM | 107 | 115 | 104
RPMI 5 mM glucose + 10% dialyzed FBS, 1.71 µM | 112 | 103 | 91.7
RPMI 5 mM glucose + 10% dialyzed FBS, 5.12 µM | 101 | 99.7 | 105
RPMI 5 mM glucose + 10% dialyzed FBS, 15.4 µM | 105 | 88.7 | 50
RPMI 5 mM glucose + 10% dialyzed FBS, 46.1 µM | 47.9 | 7.01 | 5.58
